“And” between values parts separate entries of the source, which are not always exact repeats. Identical values can stand only once. Like-named read-outs stand apart in the source and are kept apart here. Marks after values point to notes of the source that are not given here.
Tests used:
[1] = Plasma pharmacokinetics after a single intraperitoneal dose; format: in vivo, male CD1 mice; conditions: for plasma concentrations quantifiable up to: LLOQ 10.38 ng/mL; for concentration at 0.08 hr / concentration at 0.25 hr / concentration at 0.5 hr / concentration at 1 hr / concentration at 2 hr / concentration at 4 hr / concentration at 8 hr / concentration at 24 hr: intraperitoneal
Procedure: The objective of this example was to investigate the plasma pharmacokinetics of UPHH-000171 following a single intraperitoneal dose administration to male CD1 mice at 10 and 50 mg/kg. Eighteen male mice were divided in to two groups with nine animals in each group,
Animals in Group 1 and Group 2 were administered with solution formulation of UPHH-000171 in 5% NMP, 25% Solutol HS-15 and 70% normal saline intraperitoneally at 10 and 50 mg/kg dose, respectively.
The blood samples were collected from set of three mice at each time point in labeled micro centrifuge tube containing K2EDTA solution as anticoagulant at Pre-dose, 0.08, 0.25, 0.5, 1, 2, 4, 8 and 24 hr. Plasma samples were separated by centrifugation of whole blood and stored below −70±10° C. until bioanalysis. All samples were processed for analysis by protein precipitation using acetonitrile and analyzed with fit-for-purpose LC-MS/MS method (LLOQ=10.38 ng/mL). Pharmacokinetic parameters were calculated using the non-compartmental analysis tool of Phoenix WinNonlin® (Version 7.0). Mean pharmacokinetic parameters are summarized below: […]

HDAC8 = target: T1, HDAC8 (Homo sapiens, UniProt Q9BY41); test: Cellular thermal shift assay (CETSA) for HDAC8 binding; conditions: compared to a control with no compound, FIG. 1
T1 construct: CETSA uses cell lysates heated to different temperatures and quantifies the target protein in the soluble fraction by western blot; endogenous in cells; host or cells: cell lysate
T1 sequence (Q9BY41 1-377): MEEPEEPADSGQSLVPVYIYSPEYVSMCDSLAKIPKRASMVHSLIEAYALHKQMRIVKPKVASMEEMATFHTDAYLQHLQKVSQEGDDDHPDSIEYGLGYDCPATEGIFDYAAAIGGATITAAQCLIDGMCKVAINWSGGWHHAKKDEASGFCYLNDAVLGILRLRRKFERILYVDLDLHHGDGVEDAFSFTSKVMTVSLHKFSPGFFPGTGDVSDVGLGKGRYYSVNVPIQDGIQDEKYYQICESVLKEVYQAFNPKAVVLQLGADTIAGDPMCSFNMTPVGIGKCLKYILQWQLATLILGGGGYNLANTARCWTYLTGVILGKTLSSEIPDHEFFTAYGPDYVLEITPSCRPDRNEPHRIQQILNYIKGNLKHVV
Text: Cellular thermal shift assay (CETSA) was developed from the same principles of ligand induced thermal stability assays (TSA) of proteins. During TSA, purified proteins are heated in the absence or presence of ligand and then quickly cooled. Proteins that are bound to ligand are more thermally stable than their unbound counterparts, and these “thermal shifts” can be detected by various methods. CETSA uses cell lysates heated to different temperatures and quantifies the target protein in the soluble fraction by western blot. CETSA is a direct measurement of […] through the measurement of the biophysical properties that stabilized the protein-ligand complex under thermal denaturation. The UPHH-00171 compound was tested in the CETSA assay, specifically for HDAC8 binding.

[2] = tested on: gentamicin-induced AKI in zebrafish larvae; test: Gentamicin-induced AKI in zebrafish larvae (zfAKI assay), Kaplan-Meier survival; format: in vivo; conditions: two different doses, compared to the untreated control
Text: The gentamicin-induced AKI in zebrafish larvae (zfAKI assay), recapitulates injury and proliferation-based repair in mammalian AKI, but allows for higher throughput analysis of compound efficacy in AKI than mouse models. As fish are soaked in compounds, this assay is not subject to drug delivery and absorption problems that occur in early drug discovery in mice. This assay was used as a primary screening assay with the throughput being increased.

[3] = male, CD1, mouse, 10 mg/kg IP, plasma
[4] = male, CD1, mouse, 50 mg/kg IP, plasma

## COc1ccc(Cn2ccc3ccc(C(=O)NS(C)(=O)=O)cc32)cc1 [UPHH-000171, 1-(4-methoxybenzyl)-N-(methylsulfonyl)-1H-indole-6-carboxamide]
[1]; 10 mg/kg IP, 0.08 hr
  Plasma Concentration, individual animal: 9871.25 ng/mL and 2877.79 ng/mL and 7508.44 ng/mL
[1]; 10 mg/kg IP, 0.25 hr
  Plasma Concentration, individual animal: 28861.97 ng/mL and 28672.95 ng/mL
[1]; 10 mg/kg IP, 0.5 hr
  Plasma Concentration, individual animal: 41628.22 ng/mL and 36468.73 ng/mL
[1]; 10 mg/kg IP, 1 hr
  Plasma Concentration, individual animal: 49594.52 ng/mL and 19264.72 ng/mL and 34912.30 ng/mL
[1]; 10 mg/kg IP, 2 hr
  Plasma Concentration, individual animal: 46853.15 ng/mL and 43408.40 ng/mL
[1]; 10 mg/kg IP, 4 hr
  Plasma Concentration, individual animal: 47512.89 ng/mL and 73497.85 ng/mL and 31815.34 ng/mL
[1]; 10 mg/kg IP, 8 hr
  Plasma Concentration, individual animal: 20138.85 ng/mL and 29805.54 ng/mL
[1]; 10 mg/kg IP, 24 hr, animal 7 excluded as an outlier
  Plasma Concentration, individual animal: 2930.59^e ng/mL and 131.01 ng/mL and 68.44 ng/mL
[1]; 10 mg/kg IP
  plasma concentrations quantifiable up to: up to 24 hr
[1]; 50 mg/kg IP, 0.08 hr
  Plasma Concentration, individual animal: 59305.08 ng/mL and 90638.28 ng/mL
[1]; 50 mg/kg IP, 0.25 hr
  Plasma Concentration, individual animal: 31701.46 ng/mL and 171000.65 ng/mL and 182938.71 ng/mL
[1]; 50 mg/kg IP, 0.5 hr
  Plasma Concentration, individual animal: 137922.52 ng/mL and 96505.03 ng/mL and 47522.98 ng/mL
[1]; 50 mg/kg IP, 1 hr
  Plasma Concentration, individual animal: 218799.23 ng/mL and 236020.35 ng/mL
[1]; 50 mg/kg IP, 2 hr
  Plasma Concentration, individual animal: 93162.33 ng/mL and 195094.83 ng/mL and 235858.27 ng/mL
[1]; 50 mg/kg IP, 4 hr
  Plasma Concentration, individual animal: 106201.99 ng/mL and 115510.21 ng/mL
[1]; 50 mg/kg IP, 8 hr
  Plasma Concentration, individual animal: 93195.14 ng/mL and 75070.05 ng/mL
[1]; 50 mg/kg IP, 24 hr
  Plasma Concentration, individual animal: 1407.79 ng/mL and 391.49 ng/mL and 1081.42 ng/mL
[1]; 50 mg/kg IP
  plasma concentrations quantifiable up to: up to 24 hr
[1]; from 10 mg/kg to 50 mg/kg IP
  dose related increase in plasma exposure (AUClast): 3 fold
[1]; male, CD1, mouse, plasma, 10 mg/kg, 10 mg/kg IP, 0.08 hr, read-out: Plasma Concentration, Mean
  concentration at 0.08 hr: 6.75 µg/mL
[1]; male, CD1, mouse, plasma, 10 mg/kg, 10 mg/kg IP, 0.25 hr, read-out: Plasma Concentration, Mean
  concentration at 0.25 hr: 30.2 µg/mL
[1]; male, CD1, mouse, plasma, 10 mg/kg, 10 mg/kg IP, 0.25 hr, read-out: Plasma Concentration, individual animal
  concentration at 0.25 hr: 33 µg/mL
[1]; male, CD1, mouse, plasma, 10 mg/kg, 10 mg/kg IP, 0.5 hr, read-out: Plasma Concentration, Mean
  concentration at 0.5 hr: 41.2 µg/mL
[1]; male, CD1, mouse, plasma, 10 mg/kg, 10 mg/kg IP, 0.5 hr, read-out: Plasma Concentration, individual animal
  concentration at 0.5 hr: 45.6 µg/mL
[1]; male, CD1, mouse, plasma, 10 mg/kg, 10 mg/kg IP, 1 hr, read-out: Plasma Concentration, Mean
  concentration at 1 hr: 34.6 µg/mL
[1]; male, CD1, mouse, plasma, 10 mg/kg, 10 mg/kg IP, 2 hr, read-out: Plasma Concentration, Mean
  concentration at 2 hr: 47.9 µg/mL
[1]; male, CD1, mouse, plasma, 10 mg/kg, 10 mg/kg IP, 2 hr, read-out: Plasma Concentration, individual animal
  concentration at 2 hr: 53.6 µg/mL
[1]; male, CD1, mouse, plasma, 10 mg/kg, 10 mg/kg IP, 4 hr, read-out: Plasma Concentration, Mean
  concentration at 4 hr: 50.9 µg/mL
[1]; male, CD1, mouse, plasma, 10 mg/kg, 10 mg/kg IP, 8 hr, read-out: Plasma Concentration, Mean
  concentration at 8 hr: 28.4 µg/mL
[1]; male, CD1, mouse, plasma, 10 mg/kg, 10 mg/kg IP, 8 hr, read-out: Plasma Concentration, individual animal
  concentration at 8 hr: 35.1 µg/mL
[1]; male, CD1, mouse, plasma, 10 mg/kg, 10 mg/kg IP, 24 hr, average of two values
  concentration at 24 hr: 0.0997 µg/mL
[1]; male, CD1, mouse, plasma, 50 mg/kg, 50 mg/kg IP, 0.08 hr, read-out: Plasma Concentration, Mean
  concentration at 0.08 hr: 79.6 µg/mL
[1]; male, CD1, mouse, plasma, 50 mg/kg, 50 mg/kg IP, 0.08 hr, read-out: Plasma Concentration, individual animal
  concentration at 0.08 hr: 89 µg/mL
[1]; male, CD1, mouse, plasma, 50 mg/kg, 50 mg/kg IP, 0.25 hr, read-out: Plasma Concentration, Mean
  concentration at 0.25 hr: 129 µg/mL
[1]; male, CD1, mouse, plasma, 50 mg/kg, 50 mg/kg IP, 0.5 hr, read-out: Plasma Concentration, Mean
  concentration at 0.5 hr: 94 µg/mL
[1]; male, CD1, mouse, plasma, 50 mg/kg, 50 mg/kg IP, 1 hr, read-out: Plasma Concentration, Mean
  concentration at 1 hr: 228 µg/mL
[1]; male, CD1, mouse, plasma, 50 mg/kg, 50 mg/kg IP, 1 hr, read-out: Plasma Concentration, individual animal
  concentration at 1 hr: 229 µg/mL
[1]; male, CD1, mouse, plasma, 50 mg/kg, 50 mg/kg IP, 2 hr, read-out: Plasma Concentration, Mean
  concentration at 2 hr: 175 µg/mL
[1]; male, CD1, mouse, plasma, 50 mg/kg, 50 mg/kg IP, 4 hr, read-out: Plasma Concentration, Mean
  concentration at 4 hr: 116 µg/mL
[1]; male, CD1, mouse, plasma, 50 mg/kg, 50 mg/kg IP, 4 hr, read-out: Plasma Concentration, individual animal
  concentration at 4 hr: 128 µg/mL
[1]; male, CD1, mouse, plasma, 50 mg/kg, 50 mg/kg IP, 8 hr, read-out: Plasma Concentration, Mean
  concentration at 8 hr: 90.1 µg/mL
[1]; male, CD1, mouse, plasma, 50 mg/kg, 50 mg/kg IP, 8 hr, read-out: Plasma Concentration, individual animal
  concentration at 8 hr: 102 µg/mL
[1]; male, CD1, mouse, plasma, 50 mg/kg, 50 mg/kg IP, 24 hr
  concentration at 24 hr: 0.96 µg/mL
[1]; [3]
  AUC(0-t): 558 µg·h/mL
  Cmax: 50.9 µg/mL
  Tmax: 4 h
[1]; [4]
  AUC(0-inf): 1770 µg·h/mL
  AUC(0-t): 1760 µg·h/mL
  Cmax: 228 µg/mL
  Tmax: 1 h
HDAC8; listed as UPHH171
  thermal stability of HDAC8 in CETSA: increased thermal stability
HDAC8; listed as UPHH-00171
  thermal stability of HDAC8 in CETSA: increase in thermal stability
[2]
  survival in zfAKI assay: increase survival

Source: US12606557B2, “Substituted indoles with inhibitory activity” (UNIVERSITY OF PITTSBURGH—OF THE COMMONWEALTH SYSTEM OF …, priority 2020, dated 2026)
